Measured values as given in ChEMBL document CHEMBL1201862, “PubChem BioAssay data set” (2004).
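Values below derive from 48-hour exposures of cells grown in 96-well plates, with endpoints linearly interpolated between the two concentrations bracketing the appropriate inhibition level. At the GI50, growth is halved.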 Active and inactive are the calls of the source. Rule as the data show it: active = GI50 up to about 1.1 µM and inactive = higher.

Assays:
Experiment in all cases: NCI-60 cell line screen, 48 h
[1] = test system: 786-0
[2] = test system: A498
[3] = test system: A549
[4] = test system: ACHN
[5] = test system: BT-549
[6] = test system: CAKI-1
[7] = test system: CCRF-CEM
[8] = test system: COLO 205
[9] = test system: DU-145
[10] = test system: EKVX
[11] = test system: HCC 2998
[12] = test system: HCT-116
[13] = test system: HCT-15
[14] = test system: HL-60
[15] = test system: HOP-62
[16] = test system: HOP-92
[17] = test system: HT-29
[18] = test system: Hs-578T
[19] = test system: IGROV-1
[20] = test system: K562
[21] = test system: KM12
[22] = test system: LOX IMVI
[23] = test system: M14
[24] = test system: MCF7
[25] = test system: MDA-MB-231
[26] = test system: MDA-MB-435
[27] = test system: MDA-N
[28] = test system: MOLT-4
[29] = test system: Malme-3M
[30] = test system: NCI-H226
[31] = test system: NCI-H23
[32] = test system: NCI-H460
[33] = test system: NCI-H522
[34] = test system: NCI/ADR-RES
[35] = test system: OVCAR-4
[36] = test system: OVCAR-5
[37] = test system: OVCAR-8
[38] = test system: PC-3
[39] = test system: RPMI-8226
[40] = test system: RXF 393
[41] = test system: SF-295
[42] = test system: SF-539
[43] = test system: SK-MEL-28
[44] = test system: SK-MEL-2
[45] = test system: SK-MEL-5
[46] = test system: SK-OV-3
[47] = test system: SN12C
[48] = test system: SNB-19
[49] = test system: SNB-75
[50] = test system: SR
[51] = test system: SW-620
[52] = test system: T47D
[53] = test system: TK-10
[54] = test system: U-251
[55] = test system: UACC-257
[56] = test system: UACC-62
[57] = test system: UO-31
[58] = test system: OVCAR-3
[59] = test system: SF-268

Q: Which GI50 [1] does the source give for `COCn1c(C)c(C)c2c(=O)oc(N(C)C)nc21` here?
A: The GI50 was > 100 µM (inactive).

Q: What about the GI50 [2] of the same compound?
A: The GI50 was 39 µM (inactive).

Q: And the GI50 [3]?
A: The GI50 was > 100 µM (inactive).

Q: What about the GI50 [4] of the same compound?
A: Its GI50 is > 100 µM (inactive).

Q: What about the GI50 [5] of the same compound?
A: The GI50 was > 100 µM (inactive).

Q: What about the GI50 [6] of the same compound?
A: The GI50 was 13.6 µM (inactive).

Q: And the GI50 [7]?
A: Its GI50 is > 100 µM (inactive).

Q: And the GI50 [8]?
A: The GI50 was > 100 µM (inactive).

Q: What about the GI50 [9] of the same compound?
A: The GI50 was > 100 µM (inactive).

Q: And the GI50 [10]?
A: Its GI50 is > 100 µM (inactive).

Q: What about the GI50 [11] of the same compound?
A: The GI50 was > 100 µM (inactive).

Q: And the GI50 [12]?
A: Its GI50 is > 100 µM (inactive).

Q: And the GI50 [13]?
A: The GI50 was > 100 µM.

Q: What about the GI50 [14] of the same compound?
A: Its GI50 is > 100 µM (inactive).

Q: What about the GI50 [15] of the same compound?
A: The GI50 was > 100 µM (inactive).

Q: What about the GI50 [16] of the same compound?
A: Its GI50 is > 100 µM (inactive).

Q: And the GI50 [17]?
A: Its GI50 is > 100 µM (inactive).

Q: And the GI50 [18]?
A: The GI50 was > 100 µM (inactive).

Q: What about the GI50 [19] of the same compound?
A: Its GI50 is > 100 µM (inactive).

Q: What about the GI50 [20] of the same compound?
A: Its GI50 is > 100 µM (inactive).

Q: And the GI50 [21]?
A: Its GI50 is > 100 µM (inactive).

Q: What about the GI50 [22] of the same compound?
A: The GI50 was > 100 µM (inactive).

Q: What about the GI50 [23] of the same compound?
A: Its GI50 is > 100 µM (inactive).

Q: What about the GI50 [24] of the same compound?
A: The GI50 was > 100 µM (inactive).

Q: And the GI50 [25]?
A: Its GI50 is > 100 µM (inactive).

Q: And the GI50 [26]?
A: The GI50 was > 100 µM (inactive).

Q: What about the GI50 [27] of the same compound?
A: The GI50 was > 100 µM (inactive).

Q: What about the GI50 [28] of the same compound?
A: Its GI50 is > 100 µM (inactive).

Q: And the GI50 [29]?
A: Its GI50 is > 100 µM (inactive).

Q: What about the GI50 [30] of the same compound?
A: Its GI50 is > 100 µM (inactive).

Q: And the GI50 [31]?
A: Its GI50 is > 100 µM (inactive).

Q: What about the GI50 [32] of the same compound?
A: Its GI50 is > 100 µM (inactive).

Q: What about the GI50 [33] of the same compound?
A: The GI50 was > 100 µM (inactive).

Q: And the GI50 [34]?
A: The GI50 was > 100 µM (inactive).

Q: And the GI50 [35]?
A: The GI50 was > 100 µM (inactive).

Q: And the GI50 [36]?
A: The GI50 was > 100 µM (inactive).

Q: And the GI50 [37]?
A: The GI50 was > 100 µM (inactive).

Q: And the GI50 [38]?
A: Its GI50 is > 100 µM (inactive).

Q: And the GI50 [39]?
A: Its GI50 is > 100 µM (inactive).

Q: What about the GI50 [40] of the same compound?
A: Its GI50 is > 100 µM (inactive).

Q: And the GI50 [41]?
A: Its GI50 is > 100 µM (inactive).

Q: What about the GI50 [42] of the same compound?
A: The GI50 was > 100 µM (inactive).

Q: What about the GI50 [43] of the same compound?
A: The GI50 was > 100 µM (inactive).

Q: What about the GI50 [44] of the same compound?
A: The GI50 was > 100 µM (inactive).

Q: What about the GI50 [45] of the same compound?
A: Its GI50 is > 100 µM (inactive).

Q: What about the GI50 [46] of the same compound?
A: The GI50 was > 100 µM (inactive).

Q: And the GI50 [47]?
A: The GI50 was > 100 µM (inactive).

Q: And the GI50 [48]?
A: Its GI50 is 67 µM (inactive).

Q: And the GI50 [49]?
A: The GI50 was > 100 µM (inactive).

Q: What about the GI50 [50] of the same compound?
A: The GI50 was > 100 µM (inactive).

Q: What about the GI50 [51] of the same compound?
A: The GI50 was > 100 µM (inactive).

Q: And the GI50 [52]?
A: The GI50 was > 100 µM (inactive).

Q: And the GI50 [53]?
A: Its GI50 is > 100 µM (inactive).

Q: And the GI50 [54]?
A: Its GI50 is > 100 µM (inactive).

Q: What about the GI50 [55] of the same compound?
A: The GI50 was > 100 µM (inactive).

Q: And the GI50 [56]?
A: The GI50 was > 100 µM (inactive).

Q: And the GI50 [57]?
A: The GI50 was 9.82 µM (inactive).

Q: `O=C1Nc2ccc(S(=O)(=O)O)cc2/C1=C1/Nc2ccc(Br)cc2C1=O` was tested. Which GI50 [1] did it give?
A: Its GI50 is > 100 µM (inactive).

Q: What about the GI50 [2] of the same compound?
A: The GI50 was > 100 µM (inactive).

Q: What about the GI50 [3] of the same compound?
A: Its GI50 is > 100 µM (inactive).

Q: What about the GI50 [4] of the same compound?
A: Its GI50 is > 100 µM (inactive).

Q: And the GI50 [5]?
A: The GI50 was > 100 µM (inactive).

Q: And the GI50 [6]?
A: Its GI50 is > 100 µM (inactive).

Q: And the GI50 [7]?
A: Its GI50 is > 100 µM (inactive).

Q: And the GI50 [8]?
A: The GI50 was > 100 µM (inactive).

Q: And the GI50 [9]?
A: The GI50 was > 100 µM (inactive).

Q: What about the GI50 [10] of the same compound?
A: Its GI50 is > 100 µM (inactive).

Q: What about the GI50 [11] of the same compound?
A: Its GI50 is > 100 µM (inactive).

Q: What about the GI50 [12] of the same compound?
A: The GI50 was > 100 µM (inactive).

Q: And the GI50 [13]?
A: The GI50 was > 100 µM.

Q: What about the GI50 [14] of the same compound?
A: Its GI50 is > 100 µM (inactive).

Q: And the GI50 [15]?
A: Its GI50 is > 100 µM (inactive).

Q: And the GI50 [16]?
A: Its GI50 is > 100 µM (inactive).

Q: And the GI50 [17]?
A: Its GI50 is > 100 µM (inactive).

Q: What about the GI50 [18] of the same compound?
A: The GI50 was > 100 µM (inactive).

Q: What about the GI50 [19] of the same compound?
A: The GI50 was 19.1 µM (inactive).

Q: What about the GI50 [20] of the same compound?
A: The GI50 was > 100 µM (inactive).

Q: What about the GI50 [21] of the same compound?
A: Its GI50 is > 100 µM (inactive).

Q: What about the GI50 [22] of the same compound?
A: The GI50 was > 100 µM (inactive).

Q: What about the GI50 [23] of the same compound?
A: Its GI50 is > 100 µM (inactive).

Q: And the GI50 [24]?
A: Its GI50 is 72.8 µM (inactive).

Q: What about the GI50 [25] of the same compound?
A: Its GI50 is > 100 µM (inactive).

Q: What about the GI50 [26] of the same compound?
A: The GI50 was > 100 µM (inactive).

Q: What about the GI50 [27] of the same compound?
A: Its GI50 is > 100 µM (inactive).

Q: And the GI50 [28]?
A: Its GI50 is > 100 µM (inactive).

Q: What about the GI50 [29] of the same compound?
A: Its GI50 is > 100 µM (inactive).

Q: What about the GI50 [30] of the same compound?
A: The GI50 was > 100 µM (inactive).

Q: And the GI50 [31]?
A: Its GI50 is > 100 µM (inactive).

Q: What about the GI50 [32] of the same compound?
A: Its GI50 is > 100 µM (inactive).

Q: And the GI50 [33]?
A: The GI50 was > 100 µM (inactive).

Q: What about the GI50 [34] of the same compound?
A: Its GI50 is > 100 µM (inactive).

Q: What about the GI50 [58] of the same compound?
A: Its GI50 is > 100 µM (inactive).

Q: And the GI50 [35]?
A: The GI50 was > 100 µM (inactive).

Q: What about the GI50 [36] of the same compound?
A: Its GI50 is > 100 µM (inactive).

Q: What about the GI50 [37] of the same compound?
A: The GI50 was > 100 µM (inactive).

Q: And the GI50 [38]?
A: Its GI50 is > 100 µM (inactive).

Q: What about the GI50 [39] of the same compound?
A: The GI50 was > 100 µM (inactive).

Q: What about the GI50 [40] of the same compound?
A: Its GI50 is > 100 µM (inactive).

Q: What about the GI50 [59] of the same compound?
A: The GI50 was > 100 µM (inactive).

Q: And the GI50 [41]?
A: The GI50 was > 100 µM (inactive).

Q: What about the GI50 [43] of the same compound?
A: The GI50 was > 100 µM (inactive).

Q: And the GI50 [44]?
A: The GI50 was > 100 µM (inactive).

Q: And the GI50 [45]?
A: The GI50 was > 100 µM (inactive).

Q: And the GI50 [46]?
A: The GI50 was > 100 µM (inactive).

Q: What about the GI50 [47] of the same compound?
A: Its GI50 is > 100 µM (inactive).

Q: And the GI50 [48]?
A: Its GI50 is > 100 µM (inactive).

Q: And the GI50 [49]?
A: The GI50 was > 100 µM (inactive).

Q: And the GI50 [50]?
A: Its GI50 is > 100 µM (inactive).

Q: And the GI50 [51]?
A: Its GI50 is > 100 µM (inactive).

Q: And the GI50 [52]?
A: The GI50 was > 100 µM (inactive).

Q: And the GI50 [53]?
A: Its GI50 is > 100 µM (inactive).

Q: What about the GI50 [54] of the same compound?
A: The GI50 was > 100 µM (inactive).

Q: And the GI50 [55]?
A: The GI50 was > 100 µM (inactive).

Q: What about the GI50 [56] of the same compound?
A: Its GI50 is > 100 µM (inactive).

Q: And the GI50 [57]?
A: Its GI50 is > 100 µM (inactive).
